Article PMC8779631, “Binding Properties of Odorant-Binding Protein 4 of Tirathaba rufivena to Areca catechu Volatiles” (Plants, 2022)

How the values were obtained:
TrufOBP4 [1] = assay: Fluorescence competitive binding assay (displacement of 1-NPN); design: species or system Tirathaba rufivena; settings: 2 μM protein, 50 mM Tris-HCl pH 7.4; for Ki: Ki = IC50/(1 + [1-NPN]/K1-NPN); for IC50: ligand concentration displacing 50% of 1-NPN
Protocol: (§1) The binding ability of purified recombinant OBPs was evaluated with an F-7000 fluorescence spectrometer (Hitachi, Tokyo, Japan). The fluorescence spectra were recorded between 360 and 650 nm. N-Phenyl-1-naphthylamine (1-NPN) was selected as the fluorescent reporter and dissolved in chromatographic methanol at a concentration of 1 mM. The purified TrufOBP4 was dissolved in 50 mM Tris-HCl (pH 7.4) at a final concentration of 2 μM. The data for the 1-NPN-TrufOBP4 complex formation were obtained by titration of 2 μM protein with increasing concentrations (2 to 20 μM) of 1-NPN. The dissociation constant of 1-NPN (K1-NPN) was calculated using Prism 8 (GraphPad Software, San Diego, USA). To evaluate the binding ability of TrufOBP4 with volatiles, 1-NPN was replaced with different odor compounds from the TrufOBP4/1-NPN complex. The odor ligands were dissolved in chromatographic methanol at a concentration of 1 mM and added as aliquots to the protein solution. The spectral results were obtained, and the dissociation constants of the competitors were calculated with the formula: Ki = IC50/(1 + [1-NPN]/K1-NPN), where 1-NPN represents the free concentration of 1-NPN, and IC50 represents the ligand concentration displacing 50% of the fluorescent reporter.

PregOBP56a = tested on: PregOBP56a; design: method as in PMID 23326317; settings: cited from earlier work
TrufOBP4 [2] = assay: Binding of fluorescent reporter 1-NPN (titration, Scatchard plot); design: species or system Tirathaba rufivena; settings: 2 μM protein titrated with 2 to 20 μM 1-NPN; read-out: K1-NPN (dissociation constant of 1-NPN)
Protocol: as §1

Holotrichia oblita = tested on: Holotrichia oblita; design: method as in earlier work; settings: cited from earlier work
Rhyzopertha dominica = tested on: Rhyzopertha dominica; design: method as in earlier work; settings: cited from earlier work
Tribolium castaneum = tested on: Tribolium castaneum; design: method as in earlier work; settings: cited from earlier work
Hyphantria cunea = tested on: Hyphantria cunea; design: method as in PMID 32547409; settings: stimulation with the compound; cited from earlier work
AipsGOBP2 = tested on: AipsGOBP2; design: method as in PMID 29778539, PMID 29543772; settings: cited from earlier work
EoblGOBP2 = tested on: EoblGOBP2; design: method as in PMID 29778539, PMID 29543772; settings: cited from earlier work
MbraPBP1 = tested on: MbraPBP1; design: method as in PMID 11274212; settings: cited from earlier work
LsatOBP1 = tested on: LsatOBP1; design: method as in PMID 11274212; settings: cited from earlier work

Structure (SMILES): CC1=CCC2C(C1)C2(C)C (stereo not drawn) [3-Carene]
- Ki (TrufOBP4 [1]): 19.5 µM
- IC50 (TrufOBP4 [1]): 22.4 µM

Structure (SMILES): CCC(C)C(=O)OCCC(C)C (stereo not drawn) [3-Methylbutyl 2-methylbutanoate]
- Ki (TrufOBP4 [1]): 45.8 µM
- IC50 (TrufOBP4 [1]): > 50 µM

Structure (SMILES): C=C(C)[C@@H]1CC=C(C)CC1 [(S)-(−)-Limonene]
- Ki (TrufOBP4 [1]): 29.1 µM
- IC50 (TrufOBP4 [1]): 33.4 µM

Structure (SMILES): C=CC(=C)CCC=C(C)C [Myrcene]
- Ki (TrufOBP4 [1]): 17.3 µM
- IC50 (TrufOBP4 [1]): 19.8 µM

Structure (SMILES): C=C1CCC2CC1C2(C)C (stereo not drawn) [β-Pinene]
- Ki (TrufOBP4 [1]): 29 µM
- IC50 (TrufOBP4 [1]): 33.3 µM

Structure (SMILES): C=C(C)[C@H]1CC=C(C)CC1 [(R)-(+)-limonene]
- Ki (TrufOBP4 [1]): 22.1 µM
- IC50 (TrufOBP4 [1]): 25.3 µM

Structure (SMILES): CCCCCCCC/C=C\CCCCCCCC(=O)O [oleic]
- binding affinity (PregOBP56a): high binding affinity

Structure (SMILES): CCCCC/C=C\C/C=C\CCCCCCCC(=O)O [linoleic]
- binding affinity (PregOBP56a): high binding affinity

Structure (SMILES): c1ccc(Nc2cccc3ccccc23)cc1 [1-NPN, N-Phenyl-1-naphthylamine]
- Kd (TrufOBP4 [2]): 6.79 µM

Structure (SMILES): CC(=O)OCCC(C)C [Isoanyl acetate]
- Ki (TrufOBP4 [1]): 21 µM
- IC50 (TrufOBP4 [1]): 24.1 µM

Structure (SMILES): CCCCCCOC(C)=O [Hexyl acetate]
- Ki (TrufOBP4 [1]): > 50 µM
- IC50 (TrufOBP4 [1]): > 50 µM

Structure (SMILES): COC(=O)c1ccccc1O [Methyl salicylate]
- Ki (TrufOBP4 [1]): > 50 µM
- IC50 (TrufOBP4 [1]): > 50 µM

Structure (SMILES): CCCCOC(=O)c1ccccc1C(=O)OCCCC [Dibutyl phthalate]
- Ki (TrufOBP4 [1]): 4.61 µM
- IC50 (TrufOBP4 [1]): 5.29 µM
- effect on behavior (Holotrichia oblita): attractive effect
- effect on behavior (Rhyzopertha dominica): repellent
- effect on behavior (Tribolium castaneum): repellent
- mating rates (Hyphantria cunea): significantly increased
- binding affinity (AipsGOBP2): outstanding binding affinity
- binding affinity (EoblGOBP2): outstanding binding affinity

Structure (SMILES): CC12CCC(CC1)C(C)(C)O2 [Cineole]
- Ki (TrufOBP4 [1]): > 50 µM
- IC50 (TrufOBP4 [1]): > 50 µM

Structure (SMILES): C=Cc1ccccc1 [Styrene]
- Ki (TrufOBP4 [1]): 36.2 µM
- IC50 (TrufOBP4 [1]): 41.5 µM

Structure (SMILES): CCC=CCCOC(C)=O [3-Hexenyl acetate]
- Ki (TrufOBP4 [1]): 40.6 µM
- IC50 (TrufOBP4 [1]): 46.6 µM

Structure (SMILES): CCCCCCCCCCCCCCCCCC(=O)O [stearic]
- binding affinity (PregOBP56a): high binding affinity

Structure (SMILES): CCCCC(CC)COC(=O)C=Cc1ccc(OC)cc1 (stereo not drawn) [Octyl methoxycinnamate]
- Ki (TrufOBP4 [1]): 1.16 µM
- IC50 (TrufOBP4 [1]): 1.33 µM

Structure (SMILES): C=C(C)[C@H]1CC=C(C)CC1 [Cinene]
- Ki (TrufOBP4 [1]): > 50 µM
- IC50 (TrufOBP4 [1]): > 50 µM

Structure (SMILES): CCCCC(CC)CO (stereo not drawn) [2-Ethylhexanol]
- Ki (TrufOBP4 [1]): 21 µM
- IC50 (TrufOBP4 [1]): 24.1 µM

Structure (SMILES): CCCCCCCCCCCCCC(=O)O [Myristic acid]
- Ki (TrufOBP4 [1]): 3.52 µM
- IC50 (TrufOBP4 [1]): 4.04 µM

Structure (SMILES): C=CC(C)(O)CCC=C(C)C (stereo not drawn) [Linalol]
- Ki (TrufOBP4 [1]): > 50 µM
- IC50 (TrufOBP4 [1]): > 50 µM

Structure (SMILES): CCCCCCCCCCCCCCCC(=O)O [Palmitic acid]
- Ki (TrufOBP4 [1]): 5.28 µM
- IC50 (TrufOBP4 [1]): 6.06 µM
- binding (MbraPBP1): bind well
- binding (LsatOBP1): bind well
- binding affinity (PregOBP56a): high binding affinity
